What was measured:
LEFCH [1] = assay: In-water applied weed control, transplanted paddy rice, greenhouse (Example II); format: in vivo, Leptochloa chinensis (L.) Nees; conditions: 35 g ae/ha alone
IPOHE [2] = assay: Postemergence foliar-applied weed control, direct seeded rice, greenhouse (Example I); format: in vivo, Ipomoea hederacea Jacq.
ECHOR = assay: In-water applied weed control, transplanted paddy rice, greenhouse (Example II); format: in vivo, Echinochloa oryzoides (Ard.) Fritsch
LEFCH [3] = assay: Postemergence foliar-applied weed control, direct seeded rice, greenhouse (Example I); format: in vivo, Leptochloa chinensis (L.) Nees; conditions: g ae/ha Compound A n-Butyl Ester+g ai/ha carfentrazone-ethyl: r11 16+0, r12 0+28, r13 16+28
IPOHE [4] = assay: Pre-emergence soil-applied weed control, greenhouse (Example IV); format: in vivo, Ipomoea hederacea (L.) Jacq.
Text: Seeds or nutlets of the desired test plant species were planted in a soil matrix prepared by mixing a loam soil (32 percent silt, 23 percent clay, and 45 percent sand, with a pH of about 6.5 and an organic matter content of about 1.9 percent) and calcareous grit in an 80 to 20 ratio. The soil matrix was contained in plastic pots with a volume of 1 quart and a surface area of 83.6 square centimeters (cm^2).
Treatments consisted of the benzyl ester of 4-amino-3-chloro-5-fluoro-6-(4-chloro-2-fluoro-3-methoxy-phenyl)pyridine-2-carboxylic acid (compound A) formulated as an SC (suspension concentrate) and various herbicidal components alone and in combination. Forms of compound A were applied on an acid equivalent basis.
Other herbicidal components were applied on an acid equivalent or active ingredient basis and included the protoporphyrinogen oxidase (PPO)-inhibiting herbicides, flumioxazin formulated as Payload® and oxadiazon formulated as Ronstar® 50W.
Treatment requirements were calculated based upon the rates being tested, the concentration of active ingredient or acid equivalent in the formulation, and a 12 mL application volume at a rate of 187 L/ha.
For treatments comprised of formulated compounds, measured amounts of compounds were placed individually in 25 mL glass vials and diluted in a volume of 1.25% (v/v) Agri-Dex® crop oil concentrate (COC) to obtain 12× stock solutions. […] Application solutions were prepared by adding an appropriate amount of each stock solution (e.g., 1 mL) and diluted to the appropriate final concentrations with the addition of 10 mL of an aqueous mixture of 1.25% (v/v) COC so that the final spray solutions contained 1.25% (v/v) COC.
All stock solutions and applications solutions were visually inspected for compound compatibility prior to application. Spray solutions were applied to the soil with an overhead Mandel track sprayer equipped with a 8002E nozzles calibrated to deliver 187 L/ha over an application area of 0.503 m^2 at a spray height of 18 inches (46 cm) above average pot height. Control pots were sprayed in the same manner with the solvent blank.
The treated and control pots were placed in a greenhouse and top watered as needed. When required to ensure good germination and healthy plants, a fungicide treatment and/or other chemical or physical treatment was applied. The pots were maintained in a greenhouse with an approximate 14 hr photoperiod which was maintained at about 29° C. during the day and 26° C. during the night. Nutrients (Peters® Excel 15-5-15 5-Ca 2-Mg) were applied in the irrigation solution as needed and water was added on a regular basis. Supplemental lighting was provided with overhead metal halide 1000-Watt lamps as necessary. After approximately 4 weeks, the condition of the test plants as compared with that of the untreated plants was determined visually and scored on a scale of 0 to 100 percent where 0 corresponds to no injury or growth inhibition and 100 corresponds to complete kill.
Colby's equation was used to determine the herbicidal effects expected from the mixtures (Colby, S. R. 1967. Calculation of the synergistic and antagonistic response of herbicide combinations. Weeds 15:20-22.).
The following equation was used to calculate the expected activity of mixtures containing two active ingredients, A and B: Expected=A+B−(A×B/100)

ECHCG [5] = assay: Postemergence foliar-applied weed control, direct seeded rice, greenhouse (Example I); format: in vivo, Echinochloa crusgalli (L.) Beauv.
CYPRO = assay: In-water applied weed control, transplanted paddy rice, greenhouse (Example II); format: in vivo, Cyperus rotundus L.
SCPJU = assay: as above; format: in vivo, Schoenoplectus juncoides (Roxb.) Palla
DIGSA = assay: Postemergence foliar-applied weed control, direct seeded rice, greenhouse (Example I); format: in vivo, Digitaria sanguinalis (L.) Scop.
ECHCO = assay: as above; format: in vivo, Echinochloa colona (L.) Link; conditions: g ae/ha Compound A Acid+g ai/ha oxyfluorfen (SC): r24 4.38+0, r25 8.75+0, r26 0+90, r27 4.38+90, r28 8.75+90
ECHCG [6] = assay: In-water applied weed control, transplanted paddy rice, greenhouse (Example II); format: in vivo, Echinochloa crus-galli (L.) P. Beauv.; conditions: 56.25 g ai/ha alone
FIMMI = assay: as above; format: in vivo, Fimbristylis miliacea (L.) Vahl
[7] = g ae/ha Compound A n-Butyl Ester+g ai/ha oxadiazon: r11 17.5+0, r12 0+250, r13 17.5+250

Compound: CCCCOC(=O)c1nc(-c2ccc(Cl)c(OC)c2F)c(F)c(N)c1Cl [Compound A n-Butyl Ester]
- Visual Weed Control (%) - 21 DAA LEFCH Obs (LEFCH [1]): 8%
- Visual Weed Control (%) - 21 DAA IPOHE Obs (IPOHE [2]; [7]): 40%
- Visual Weed Control (%) - 21 DAA ECHOR Obs (ECHOR; 35 g ae/ha alone): 25%
- Visual Weed Control (%) - 21 DAA ECHOR Obs (ECHOR; 70 g ae/ha alone): 38%
- Visual Weed Control (%) - 19 DAA LEFCH Obs (LEFCH [3]): 10%

Compound: C#CCOc1cc(-n2nc(C(C)(C)C)oc2=O)c(Cl)cc1Cl [Oxadiargyl, 3-[2,4-dichloro-5-(2-propynyloxy)phenyl]-5-(1,1-dimethylethyl)-1,3,4-oxadiazol-2(3H)-one]
- Visual Weed Control (%) - 22 DAA IPOHE Obs (IPOHE [2]; g ae/ha Compound A Acid+g ai/ha oxadiargyl: r10 4.38+0, r11 8.75+0, r12 17.5+0, r13 0+50, r14 4.38+50, r15 8.75+50, r16 17.5+50): 25%
- Visual Weed Control (%) - 22 DAA IPOHE Obs (IPOHE [2]; g ae/ha Compound A Benzyl Ester+g ai/ha oxadiargyl: r11 4.38+0, r12 8.75+0, r13 0+50, r14 4.38+50, r15 8.75+50): 25%

Compound: CC(C)Oc1cc(-n2nc(C(C)(C)C)oc2=O)c(Cl)cc1Cl [Oxadiazon, 3-[2,4-dichloro-5-(1-methylethoxy)phenyl]-5-(1,1-dimethylethyl)-1,3,4-oxadiazol-2(3H)-one]
- Visual Weed Control (%) - 21 DAA IPOHE Obs (IPOHE [2]; g ae/ha Compound A Benzyl Ester+g ai/ha oxadiazon: r33 17.5+0, r34 0+250, r35 17.5+250): 5%
- Visual Weed Control (%) - 21 DAA IPOHE Obs (IPOHE [2]; [7]): 5%
- Visual Weed Control (%) - 20 DAA IPOHE Obs (IPOHE [2]; second section, g ae/ha Compound A Acid+g ai/ha oxadiazon: r23 17.5+0, r24 35+0, r25 0+250, r26 17.5+250, r27 35+250): 5%
- Visual Weed Control (%) - 21 DAA ECHOR Obs (ECHOR; 62.5 g ai/ha alone): 15%
- Visual Weed Control (%) - 21 DAA ECHOR Obs (ECHOR; 250 g ai/ha alone): 18%
- Visual Weed Control (%) - 21 DAA ECHOR Obs (ECHOR; second block, g ae/ha Compound A Acid+g ai/ha oxadiazon: r22 35+0, r23 70+0, r24 0+250, r25 35+250, r26 70+250): 18%
- Visual Weed Control (%) - 32 DAA IPOHE Obs (IPOHE [4]; 560 g ai/ha alone): 50%
- Visual Weed Control (%) - 32 DAA IPOHE Obs (IPOHE [4]; 1120 g ai/ha alone): 100%

Compound: CCOc1cc(Oc2ccc(C(F)(F)F)cc2Cl)ccc1[N+](=O)[O-] [Oxyfluorfen, 2-chloro-1-(3-ethoxy-4-nitrophenoxy)-4-(trifluoromethyl)benzene, reference compound]
- Visual Weed Control (%) - 23 DAA ECHCG Obs (ECHCG [5]; g ae/ha Compound A Acid+g ai/ha oxyfluorfen (SC): r13 4.38+0, r14 8.75+0, r15 17.5+0, r16 0+180, r17 4.38+180, r18 8.75+180, r19 17.5+180): 30%
- Visual Weed Control (%) - 21 DAA CYPRO Obs (CYPRO; g ae/ha Compound A Acid+g ai/ha oxyfluorfen (SC): r28 16+0, r29 32+0, r30 64+0, r31 0+135, r32 0+270, r33 16+135, r34 32+135, r35 64+135, r36 16+270, r37 32+270, r38 64+270): 0%
- Visual Weed Control (%) - 22 DAA CYPRO Obs (CYPRO; g ae/ha Compound A Acid+g ai/ha oxyfluorfen (technical): r11 10.6+0, r12 21.2+0, r13 42.4+0, r14 0+180, r15 10.6+180, r16 21.2+180, r17 42.4+180): 50%
- Visual Weed Control (%) - 21 DAA CYPRO Obs (CYPRO; g ae/ha Compound A Benzyl Ester+g ai/ha oxyfluorfen (SC): r11 32+0, r12 0+135, r13 0+270, r14 32+135, r15 32+270): 0%
- Visual Weed Control (%) - 23 DAA IPOHE Obs (IPOHE [2]; g ae/ha Compound A Benzyl Ester+g ai/ha oxyfluorfen (SC): r36 4.38+0, r37 8.75+0, r38 17.5+0, r39 0+90, r40 0+180, r41 4.38+90, r42 8.75+90, r43 17.5+90, r44 4.38+180, r45 8.75+180, r46 17.5+180): 85%
- Visual Weed Control (%) - 22 DAA SCPJU Obs (SCPJU; g ae/ha Compound A Acid+g ai/ha oxyfluorfen (technical): r19 8.75+0, r20 17.5+0, r21 35+0, r22 0+180, r23 0+360, r24 8.75+180, r25 17.5+180, r26 35+180, r27 8.75+360, r28 17.5+360, r29 35+360): 0%
- Visual Weed Control (%) - 23 DAA DIGSA Obs (DIGSA; g ae/ha Compound A Benzyl Ester+g ai/ha oxyfluorfen (SC): r14 4.38+0, r15 8.75+0, r16 17.5+0, r17 0+180, r18 4.38+180, r19 8.75+180, r20 17.5+180): 60%
- Visual Weed Control (%) - 21 DAA DIGSA Obs (DIGSA; g ae/ha Compound A Benzyl Ester+g ai/ha oxyfluorfen (technical): r15 4.38+0, r16 8.75+0, r17 17.5+0, r18 0+180, r19 4.38+180, r20 8.75+180, r21 17.5+180): 50%
- Visual Weed Control (%) - 23 DAA ECHCO Obs (ECHCO): 50%

Compound: CC(C)=C1OC(=O)N(c2cc(OC3CCCC3)c(Cl)cc2F)C1=O [Pentoxazone, 3-[4-chloro-5-(cyclopentyloxy)-2-fluorophenyl]-5-(1-methylethylidene)-2,4-oxazolidinedione]
- Visual Weed Control (%) - 21 DAA CYPRO Obs (CYPRO; 56.25 g ai/ha alone): 0%
- Visual Weed Control (%) - 21 DAA CYPRO Obs (CYPRO; 112.5 g ai/ha alone): 0%
- Visual Weed Control (%) - 21 DAA SCPJU Obs (SCPJU; 56.25 g ai/ha alone): 0%
- Visual Weed Control (%) - 21 DAA SCPJU Obs (SCPJU; 112.5 g ai/ha alone): 0%
- Visual Weed Control (%) - 21 DAA ECHCG Obs (ECHCG [6]): 0%
- Visual Weed Control (%) - 21 DAA FIMMI Obs (FIMMI; 56.25 g ai/ha alone): 25%
- Visual Weed Control (%) - 21 DAA FIMMI Obs (FIMMI; 112.5 g ai/ha alone): 20%

Compound: CCOC(=O)COc1cc(-c2nn(C)c(OC(F)F)c2Cl)c(F)cc1Cl [Pyraflufen-ethyl, ethyl 2-[2-chloro-5-[4-chloro-5-(difluoromethoxy)-1-methyl-1H-pyrazol-3-yl]-4-fluorophenoxy]acetate, reference compound]
- Visual Weed Control (%) - 21 DAA ECHCG Obs (ECHCG [5]; g ae/ha Compound A Benzyl Ester+g ai/ha pyraflufen-ethyl: r11 8+0, r12 0+5.3, r13 0+10.6, r14 8+5.3, r15 8+10.6): 15%
